Test results from ChEMBL document CHEMBL4270621, “Discovery of long-chain salicylketoxime derivatives as monoacylglycerol lipase (MAGL) inhibitors” (Eur J Med Chem, 2018).
Active and inactive are the calls of the source. No cut-off for these calls is given here.

Assays:
OVCAR-3 = assay: Antiproliferative activity against human OVCAR3 cells measured after 96 hrs; format: functional, cell-based; settings: OVCAR-3, 96 h
Caov-3 cell line = assay: Antiproliferative activity against human Caov3 cells measured after 96 hrs; format: functional, cell-based; settings: Caov-3, 96 h
SK-OV-3 = assay: Antiproliferative activity against human SKOV3 cells measured after 96 hrs; format: functional, cell-based; settings: SK-OV-3, 96 h
MDA-MB-231 = assay: Antiproliferative activity against human MDA-MB-231 cells measured after 96 hrs; format: functional, cell-based; settings: MDA-MB-231, 96 h
HCT-116 = assay: Antiproliferative activity against human HCT116 cells measured after 96 hrs; format: functional, cell-based; settings: HCT-116, 96 h
Monoglyceride lipase [1] = target: T1, Monoglyceride lipase (Homo sapiens, UniProt Q99685); assay: Inhibition of recombinant human C-terminal His-tagged MAGL expressed in Escherichia coli using 4-NPA as substrate pretreated with substrate 15 mins followed by enzyme addition measured after 30 mins
T1 sequence (Q99685 whole entry): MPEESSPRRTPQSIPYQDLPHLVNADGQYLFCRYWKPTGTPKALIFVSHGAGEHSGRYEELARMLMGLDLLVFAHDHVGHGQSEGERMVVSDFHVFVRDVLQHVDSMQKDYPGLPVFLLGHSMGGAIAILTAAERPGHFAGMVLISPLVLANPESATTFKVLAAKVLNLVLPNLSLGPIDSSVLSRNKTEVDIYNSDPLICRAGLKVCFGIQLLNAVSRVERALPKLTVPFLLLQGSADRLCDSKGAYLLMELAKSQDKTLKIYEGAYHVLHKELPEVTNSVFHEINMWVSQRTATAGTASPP

Cannabinoid receptor 1 [2] = target: T2, Cannabinoid receptor 1 (Homo sapiens, UniProt P21554); assay: Displacement of [3H]CP55940 from recombinant human CB1 expressed crude membranes after 90 mins by liquid scintillation counting method
[3] = target: T3, Fatty-acid amide hydrolase 1 (Homo sapiens, UniProt O00519); assay: Inhibition of FAAH in human U937 cells using [ethanolamine-1-3H]AEA as substrate pretreated for 30 mins followed by substrate addition and measured after 15 mins by liquid scintillation counting method; format: cell-based
T3 sequence (O00519 whole entry): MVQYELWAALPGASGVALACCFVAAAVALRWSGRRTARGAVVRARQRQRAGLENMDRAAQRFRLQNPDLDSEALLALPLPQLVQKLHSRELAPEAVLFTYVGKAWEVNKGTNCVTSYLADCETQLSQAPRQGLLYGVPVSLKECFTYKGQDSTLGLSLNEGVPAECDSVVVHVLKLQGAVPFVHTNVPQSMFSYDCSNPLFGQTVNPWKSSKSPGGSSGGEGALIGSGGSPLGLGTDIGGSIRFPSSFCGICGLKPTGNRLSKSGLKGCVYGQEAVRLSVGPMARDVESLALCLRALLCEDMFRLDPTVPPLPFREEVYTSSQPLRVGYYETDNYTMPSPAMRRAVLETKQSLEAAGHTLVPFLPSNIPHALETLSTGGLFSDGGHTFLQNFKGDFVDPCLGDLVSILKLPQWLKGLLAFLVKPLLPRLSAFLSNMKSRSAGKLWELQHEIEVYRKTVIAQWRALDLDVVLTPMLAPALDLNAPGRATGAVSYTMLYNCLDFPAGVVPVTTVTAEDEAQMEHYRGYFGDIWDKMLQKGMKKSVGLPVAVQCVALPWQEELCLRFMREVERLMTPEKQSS

Monoglyceride lipase [4] = target: T1, Monoglyceride lipase; assay: Inhibition of recombinant human C-terminal His-tagged MAGL expressed in Escherichia coli using 4-NPA as substrate measured after 30 mins
[5] = target: T4, Monoglyceride lipase (Homo sapiens) (UniProt Q99685); assay: Reversible inhibition of recombinant human C-terminal His-tagged MAGL expressed in Escherichia coli using 4-NPA as substrate pretreated up to 60 mins followed by substrate addition and measured after 30 mins
T4 sequence (whole entry): T1 sequence (Q99685 whole entry)

Monoglyceride lipase [6] = target: T1, Monoglyceride lipase; assay: Inhibition of recombinant human C-terminal His-tagged MAGL expressed in Escherichia coli using 4-NPA as substrate pretreated with substrate 15 mins in presence of DTT followed by enzyme addition measured after 30 mins
Cannabinoid receptor 1 [7] = target: T2, Cannabinoid receptor 1; assay: Displacement of [3H]CP55940 from recombinant human CB1 expressed in crude membranes at 10 uM after 90 mins by liquid scintillation counting method relative to control; format: cell membranes
[8] = target: T4, Monoglyceride lipase (Homo sapiens); assay: Reversible inhibition of recombinant human C-terminal His-tagged MAGL expressed in Escherichia coli at 20 uM using 4-NPA as substrate pretreated for 60 mins followed by 40 times compound dilution for 15 mins and subsequent substrate addition measured after 30 mins
[9] = target: T5, Estrogen receptor (Homo sapiens) (UniProt P03372); assay: Displacement of [3H]-estradiol from full length human untagged ERalpha expressed in Sf insect cells after 18 to 24 hrs by radiometric method relative to estradiol
T5 sequence (whole entry): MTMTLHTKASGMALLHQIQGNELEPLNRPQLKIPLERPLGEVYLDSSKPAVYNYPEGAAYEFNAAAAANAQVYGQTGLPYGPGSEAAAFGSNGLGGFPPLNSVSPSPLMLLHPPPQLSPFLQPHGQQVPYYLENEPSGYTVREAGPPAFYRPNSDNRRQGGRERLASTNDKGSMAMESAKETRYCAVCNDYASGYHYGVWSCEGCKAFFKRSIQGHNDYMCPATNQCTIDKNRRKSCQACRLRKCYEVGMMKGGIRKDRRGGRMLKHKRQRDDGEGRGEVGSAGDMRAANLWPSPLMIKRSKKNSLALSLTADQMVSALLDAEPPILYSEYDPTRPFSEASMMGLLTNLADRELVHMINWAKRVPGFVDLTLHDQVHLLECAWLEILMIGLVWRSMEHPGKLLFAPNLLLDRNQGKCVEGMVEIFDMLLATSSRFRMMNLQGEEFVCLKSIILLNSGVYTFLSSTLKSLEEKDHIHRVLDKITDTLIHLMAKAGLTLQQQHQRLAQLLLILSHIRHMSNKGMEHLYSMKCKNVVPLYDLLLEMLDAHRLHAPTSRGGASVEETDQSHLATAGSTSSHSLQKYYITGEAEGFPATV

[10] = target: Estrogen receptor beta (Homo sapiens) (UniProt Q92731); assay: Displacement of [3H]-estradiol from full length human ERbeta expressed in insect cells after 18 to 24 hrs by radiometric method relative to estradiol
Sequence of Estrogen receptor beta (Homo sapiens) (Q92731 whole entry): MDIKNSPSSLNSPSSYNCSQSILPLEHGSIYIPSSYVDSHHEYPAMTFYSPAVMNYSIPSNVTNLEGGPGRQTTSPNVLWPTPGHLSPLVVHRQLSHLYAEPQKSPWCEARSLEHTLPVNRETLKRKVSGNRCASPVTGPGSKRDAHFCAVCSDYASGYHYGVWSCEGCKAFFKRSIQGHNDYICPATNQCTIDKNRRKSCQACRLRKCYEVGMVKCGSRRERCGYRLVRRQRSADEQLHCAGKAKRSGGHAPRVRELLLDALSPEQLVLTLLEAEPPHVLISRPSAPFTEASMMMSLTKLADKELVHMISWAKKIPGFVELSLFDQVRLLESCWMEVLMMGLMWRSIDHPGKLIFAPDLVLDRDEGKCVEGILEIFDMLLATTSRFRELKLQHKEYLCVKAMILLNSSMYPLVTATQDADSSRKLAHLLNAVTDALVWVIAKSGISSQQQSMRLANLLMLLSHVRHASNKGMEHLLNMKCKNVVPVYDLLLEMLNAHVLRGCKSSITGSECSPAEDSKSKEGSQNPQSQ

T2 sequence (P21554 whole entry): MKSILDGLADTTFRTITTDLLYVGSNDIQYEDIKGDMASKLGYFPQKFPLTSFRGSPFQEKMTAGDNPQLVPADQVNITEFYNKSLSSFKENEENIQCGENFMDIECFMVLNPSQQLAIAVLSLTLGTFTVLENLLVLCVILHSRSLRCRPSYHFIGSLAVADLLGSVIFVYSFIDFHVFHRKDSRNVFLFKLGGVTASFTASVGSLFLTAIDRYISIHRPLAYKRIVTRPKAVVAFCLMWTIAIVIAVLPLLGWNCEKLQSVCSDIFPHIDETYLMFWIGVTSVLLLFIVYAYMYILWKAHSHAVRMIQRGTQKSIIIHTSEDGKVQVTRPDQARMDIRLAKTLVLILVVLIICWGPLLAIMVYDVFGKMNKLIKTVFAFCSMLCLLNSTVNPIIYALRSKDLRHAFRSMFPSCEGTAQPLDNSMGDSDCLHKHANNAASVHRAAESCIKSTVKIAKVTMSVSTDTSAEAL

SMILES	IC50 (OVCAR-3) [µM]	IC50 (Caov-3 cell line) [µM]	IC50 (SK-OV-3) [µM]	IC50 (MDA-MB-231) [µM]	IC50 (HCT-116) [µM]	IC50 (Monoglyceride lipase [4]) [µM]	other results
COc1nn(-c2ccc(NC(=O)OCc3ccccc3)c(C)c2)c(=O)o1	50	92	34	42	89	–	–
CCCCCCCCCCCCC/C(=N\O)c1cc(-c2ccc(O)c(F)c2)ccc1O	28	14	26	73	11	0.68	IC50 (Monoglyceride lipase [1]): 0.68 µM; IC50 (Cannabinoid receptor 1 [2]): 4.1 µM; IC50 [3]: 8.7 µM; inhibition [5]: Active; IC50 (Monoglyceride lipase [6]): 0.7 µM; inhibition (Cannabinoid receptor 1 [7]): 5%; inhibition [8]: Active
CCCCCCCCCCC/C(=N\O)c1cc(-c2ccc(O)c(F)c2)ccc1O	40	11	20	45	7.6	0.71	IC50 (Cannabinoid receptor 1 [2]): 2.6 µM; IC50 [3]: 4.1 µM; inhibition (Cannabinoid receptor 1 [7]): 5%
CC/C(=N\O)c1cc(-c2ccc(O)c(F)c2)ccc1O	–	–	–	–	–	11	RBA [9]: 2.1%; RBA [10]: 37%
CCCCCCCCCCCCC/C(=N\O)c1cc(-c2ccc(OC)c(F)c2)ccc1O	–	–	–	–	–	> 200	–
CCCCCCCCCCCCCCC/C(=N\O)c1cc(-c2ccc(OC)c(F)c2)ccc1O	–	–	–	–	–	> 200	–
C/C(=N\O)c1cc(-c2ccc(O)c(F)c2)ccc1O	–	–	–	–	–	34	–
CCCC/C(=N\O)c1cc(-c2ccc(OC)cc2)ccc1O	–	–	–	–	–	119	–
